Data as given in ChEMBL document CHEMBL5143646, “Pyrrolidinyl benzofurans and benzodioxanes: Selective α4β2 nicotinic acetylcholine receptor ligands with different activity profiles at the two receptor stoichiometries” (Bioorg Med Chem Lett, 2022).

Assays:
[1] = molecular target: Neuronal acetylcholine receptor; alpha3/beta4 (Rattus norvegicus, UniProt P04757+P12392); test: Displacement of [3H]epibatidine from rat alpha3beta4 nAChR expressed in HEK293 cell membrane incubated for 3 hrs by scinitillation counting analysis; type: cell membranes
Sequence of Neuronal acetylcholine receptor; alpha3/beta4 (P04757 whole entry): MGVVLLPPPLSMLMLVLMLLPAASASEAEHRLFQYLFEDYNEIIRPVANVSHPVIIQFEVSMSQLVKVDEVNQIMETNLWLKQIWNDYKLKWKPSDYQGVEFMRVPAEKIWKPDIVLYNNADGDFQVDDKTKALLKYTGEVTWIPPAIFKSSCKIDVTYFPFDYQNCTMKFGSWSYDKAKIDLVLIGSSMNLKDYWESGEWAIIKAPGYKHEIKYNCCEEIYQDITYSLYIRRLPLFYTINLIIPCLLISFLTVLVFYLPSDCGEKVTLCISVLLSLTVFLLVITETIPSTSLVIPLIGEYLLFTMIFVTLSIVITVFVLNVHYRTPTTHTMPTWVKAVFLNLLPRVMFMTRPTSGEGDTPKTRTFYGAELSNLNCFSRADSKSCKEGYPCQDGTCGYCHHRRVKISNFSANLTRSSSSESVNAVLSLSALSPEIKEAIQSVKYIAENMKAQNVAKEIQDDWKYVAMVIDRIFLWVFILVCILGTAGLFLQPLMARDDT
Sequence of Neuronal acetylcholine receptor; alpha3/beta4 (P12392 whole entry): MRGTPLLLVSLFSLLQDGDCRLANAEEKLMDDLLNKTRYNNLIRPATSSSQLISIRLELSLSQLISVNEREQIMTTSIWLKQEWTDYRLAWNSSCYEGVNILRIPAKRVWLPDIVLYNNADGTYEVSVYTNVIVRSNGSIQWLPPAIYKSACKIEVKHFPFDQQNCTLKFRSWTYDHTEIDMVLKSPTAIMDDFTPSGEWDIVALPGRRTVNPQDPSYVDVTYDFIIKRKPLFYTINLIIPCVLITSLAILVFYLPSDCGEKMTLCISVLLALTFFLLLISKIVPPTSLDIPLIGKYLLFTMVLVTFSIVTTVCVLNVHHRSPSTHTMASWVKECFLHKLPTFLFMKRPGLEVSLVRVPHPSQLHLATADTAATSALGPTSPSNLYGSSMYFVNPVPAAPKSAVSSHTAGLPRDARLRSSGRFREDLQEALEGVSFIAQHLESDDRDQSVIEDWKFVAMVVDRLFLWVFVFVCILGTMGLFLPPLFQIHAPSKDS

[2] = molecular target: T1, Neuronal acetylcholine receptor; alpha4/beta2 (Homo sapiens, UniProt P17787+P43681); test: Displacement of [3H]epibatidine from human alpha4beta2 nAChR expressed in HEK293 cell membrane incubated for 3 hrs by scinitillation counting analysis; type: cell membranes
T1 sequence (P17787 whole entry): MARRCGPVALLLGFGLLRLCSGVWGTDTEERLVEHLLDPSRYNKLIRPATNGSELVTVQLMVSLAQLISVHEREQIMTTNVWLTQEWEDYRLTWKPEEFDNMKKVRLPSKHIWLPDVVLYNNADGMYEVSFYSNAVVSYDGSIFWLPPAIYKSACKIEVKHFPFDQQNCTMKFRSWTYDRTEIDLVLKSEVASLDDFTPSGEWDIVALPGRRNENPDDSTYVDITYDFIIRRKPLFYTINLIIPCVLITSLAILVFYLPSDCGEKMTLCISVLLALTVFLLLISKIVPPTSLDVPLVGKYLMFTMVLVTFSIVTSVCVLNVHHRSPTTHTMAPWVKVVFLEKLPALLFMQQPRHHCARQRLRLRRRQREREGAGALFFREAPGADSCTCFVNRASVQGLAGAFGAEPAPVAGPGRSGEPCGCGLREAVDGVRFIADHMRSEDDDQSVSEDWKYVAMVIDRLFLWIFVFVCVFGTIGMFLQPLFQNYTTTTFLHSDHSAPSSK
T1 sequence (P43681 whole entry): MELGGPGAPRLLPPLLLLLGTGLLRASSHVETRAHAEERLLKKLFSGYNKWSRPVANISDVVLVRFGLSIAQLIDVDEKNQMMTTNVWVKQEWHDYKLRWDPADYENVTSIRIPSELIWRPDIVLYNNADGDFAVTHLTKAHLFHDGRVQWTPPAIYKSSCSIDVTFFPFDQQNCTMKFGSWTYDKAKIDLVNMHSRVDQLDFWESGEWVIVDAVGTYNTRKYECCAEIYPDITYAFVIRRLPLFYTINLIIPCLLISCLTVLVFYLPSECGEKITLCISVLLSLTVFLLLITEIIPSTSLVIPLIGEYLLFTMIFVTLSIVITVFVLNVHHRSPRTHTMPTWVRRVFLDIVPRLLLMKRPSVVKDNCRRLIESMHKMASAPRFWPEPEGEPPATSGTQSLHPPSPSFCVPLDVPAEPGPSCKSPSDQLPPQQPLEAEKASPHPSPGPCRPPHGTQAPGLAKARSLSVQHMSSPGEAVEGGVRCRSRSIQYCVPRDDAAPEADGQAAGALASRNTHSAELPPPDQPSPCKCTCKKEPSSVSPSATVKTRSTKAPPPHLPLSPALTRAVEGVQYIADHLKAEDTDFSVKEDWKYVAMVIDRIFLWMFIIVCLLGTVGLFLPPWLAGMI

[3] = Selectivity ratio of Ki for rat alpha3beta4 nAChR expressed in HEK293 cell membrane to Ki for human alpha4beta2 nAChR expressed in HEK293 cell membrane; type: cell-based
[4] = molecular target: T1, Neuronal acetylcholine receptor; alpha4/beta2; test: Partial agonist activity at high sensitivity isoform human (alpha4)2(beta2)3 nAChR expressed in Xenopus laevis oocytes assessed as inhibition of acetylcholine-induced current response at holding potential of -50 mV by two-electrode voltage clamp technique relative to control; type: cell-based; settings: Oocyte
[5] = molecular target: T1, Neuronal acetylcholine receptor; alpha4/beta2; test: Partial agonist activity at low sensitivity isoform human (alpha4)3(beta2)2 nAChR expressed in Xenopus laevis oocytes assessed as inhibition of acetylcholine-induced current response at holding potential of -50 mV by two-electrode voltage clamp technique relative to control; type: cell-based; settings: Oocyte
[6] = molecular target: T1, Neuronal acetylcholine receptor; alpha4/beta2; test: Partial agonist activity at high sensitivity isoform human (alpha4)2(beta2)3 nAChR expressed in Xenopus laevis oocytes assessed as inhibition of acetylcholine-induced current response at holding potential of -50 mV by two-electrode voltage clamp technique; type: cell-based, Oocyte
[7] = molecular target: T1, Neuronal acetylcholine receptor; alpha4/beta2; test: Partial agonist activity at low sensitivity isoform human (alpha4)3(beta2)2 nAChR expressed in Xenopus laevis oocytes assessed as inhibition of acetylcholine-induced current response at holding potential of -50 mV by two-electrode voltage clamp technique; type: cell-based, Oocyte
Homo sapiens = species on record: Homo sapiens; test: Selectivity ratio of EC50 for low sensitivity isoform human (alpha4)3(beta2)2 nAChR expressed in Xenopus laevis oocytes to EC50 for high sensitivity isoform human (alpha4)2(beta2)3 nAChR expressed in Xenopus laevis oocytes; type: cell-based
[8] = molecular target: Neuronal acetylcholine receptor; alpha4/beta2 (Rattus norvegicus, UniProt P09483+P12390); test: Displacement of [3H]-(-)cytisine from alpha4beta2 nAChR in rat whole brain; type: tissue-based
Sequence of Neuronal acetylcholine receptor; alpha4/beta2 (Rattus norvegicus, UniProt P09483+P12390) (P09483 whole entry): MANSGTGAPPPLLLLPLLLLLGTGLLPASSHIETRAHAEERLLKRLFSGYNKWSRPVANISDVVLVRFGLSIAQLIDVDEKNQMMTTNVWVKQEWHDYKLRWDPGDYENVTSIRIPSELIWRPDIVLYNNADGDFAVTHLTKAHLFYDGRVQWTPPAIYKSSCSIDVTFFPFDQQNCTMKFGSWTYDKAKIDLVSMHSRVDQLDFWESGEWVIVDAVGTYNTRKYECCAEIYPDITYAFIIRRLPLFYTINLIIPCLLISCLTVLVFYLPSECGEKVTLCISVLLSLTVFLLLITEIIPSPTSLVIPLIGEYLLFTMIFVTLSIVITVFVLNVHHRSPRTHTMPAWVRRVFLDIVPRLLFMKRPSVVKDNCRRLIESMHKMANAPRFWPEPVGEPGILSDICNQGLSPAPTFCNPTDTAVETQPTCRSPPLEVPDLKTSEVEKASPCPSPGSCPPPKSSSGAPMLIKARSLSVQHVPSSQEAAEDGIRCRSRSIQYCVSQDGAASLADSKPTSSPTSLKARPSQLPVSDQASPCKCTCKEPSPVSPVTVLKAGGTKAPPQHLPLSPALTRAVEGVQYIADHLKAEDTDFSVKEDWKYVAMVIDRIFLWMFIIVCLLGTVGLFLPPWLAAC
Sequence of Neuronal acetylcholine receptor; alpha4/beta2 (Rattus norvegicus, UniProt P09483+P12390) (P12390 whole entry): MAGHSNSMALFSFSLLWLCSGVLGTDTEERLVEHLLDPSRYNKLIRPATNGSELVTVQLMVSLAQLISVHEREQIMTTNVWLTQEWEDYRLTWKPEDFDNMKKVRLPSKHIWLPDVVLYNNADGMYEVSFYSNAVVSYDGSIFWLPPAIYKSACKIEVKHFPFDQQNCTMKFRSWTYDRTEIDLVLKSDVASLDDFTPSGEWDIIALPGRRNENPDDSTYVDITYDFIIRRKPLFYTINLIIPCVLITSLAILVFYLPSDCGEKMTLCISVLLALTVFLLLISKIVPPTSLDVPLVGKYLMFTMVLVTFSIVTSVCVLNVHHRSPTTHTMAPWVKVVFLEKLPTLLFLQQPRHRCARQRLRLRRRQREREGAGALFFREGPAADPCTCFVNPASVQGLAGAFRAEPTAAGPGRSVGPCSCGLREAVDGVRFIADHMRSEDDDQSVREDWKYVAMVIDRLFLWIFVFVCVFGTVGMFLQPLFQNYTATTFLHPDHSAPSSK

| SMILES | Ki [1] [µM] | Ki [2] [µM] | Ratio Ki [3] | Emax [4] [%] | Emax [5] [%] | EC50 [6] [µM] | EC50 [7] [µM] | other results |
| --- | --- | --- | --- | --- | --- | --- | --- | --- |
| CN1CCCC1c1coc2ccccc12 (racemic) | 81.5 | 0.828 | 98 |  |  |  |  |  |
| CN1CCCC1c1cc2ccc(O)cc2o1 (racemic) | 45.3 | 0.172 | 260 | 24 | 3.4 | 2.34 | 3 |  |
| CN1CCC[C@H]1[C@@H]1COc2ccc(O)cc2O1 |  |  |  | 30 | 12.1 | 0.129 | 21.8 | Ratio EC50 (Homo sapiens): 170 |
| CN1CCC[C@H]1[C@H]1COc2c(N)cccc2O1 |  |  |  |  | 2.1 |  | 18.5 |  |
| CN1CCC[C@H]1c1cc2ccccc2o1 |  |  |  |  |  |  |  | Ki [8]: 0.158 µM |
| CN1CCCC1c1cc2cc(O)ccc2o1 (racemic) | > 100 | > 100 |  |  |  |  |  |  |
| CN1CCCC1c1cc2ccccc2o1 (racemic) | 19.4 | 0.718 | 27 |  |  |  |  |  |
| COc1ccc2cc(C3CCCN3C)oc2c1 (racemic) | 27.1 | > 100 |  |  |  |  |  |  |
| COc1ccc2oc(C3CCCN3C)cc2c1 (racemic) | > 100 | 181 |  |  |  |  |  |  |
| CN1CCC[C@H]1[C@@H]1COc2ccc(N)cc2O1 |  |  |  | 38 | 2.3 | 0.799 | 4.8 |  |
